Columns and labels:
mushroom tyrosinase = assay: Mushroom Tyrosinase Assay; type: biochemical; settings: for tyrosinase activity, % of ethanol control: slope of 475-nm absorbency vs. untreated ethanol control, L-DOPA substrate
Method: Mushroom tyrosinase inhibition is indicative of reduction in melanin synthesis, thereby showing skin lightening effect.
Into each well of a 96-well plate, 150 microliters of phosphate buffer (100 mM, pH 7.0), 10 microliters of L-DOPA (L-3, 4-Dihydroxyphenylalanine, 10 mM), and 20 microliters of skin lightening agent (dissolved in ethanol, which is the control) were added. Following an initial measurement of background absorbency at 475-nm, 20 microliters of mushroom tyrosinase (Sigma T-7755; 6050 units/ml) was added and incubated at room temperature.
Absorbency is read at 475-nm over the following time points: 0, 2, 4, and 6.5 minutes. The data is plotted as 475-nm absorbency vs. time (minutes) and the slope of the line is calculated (ΔAbs 475 nm/min). Values are expressed as the percentage of the respective untreated ethanol control reaction. [formula]

B16 mouse melanoma cells = assay: Melanin synthesis in B16 mouse melanoma cells (cell based assay); settings: 6.25 micromolar, 72 hours, melanin in medium read at 530-nm, read-out: % of Control (Melanin Synthesis)
Method: This experiment was carried out using a cell based assay.
B16 mouse melanoma cells were utilized in the following experiment to evaluate the efficacy of skin lightening agents. B16 cells were plated in 96-well microtiter plates at a density of 5000 cells per well and cultured overnight in Dulbecco's Modified Eagle's Medium (phenol red free) containing 10% fetal bovine serum and 1% penicillin/streptomycin at 37° C. in the presence of 5% CO2. After 24 hours, the medium was replaced with fresh growth medium containing the treatments. All cultures were incubated for 72 hours at which time melanin was visible in the control treatment. The melanin-containing medium was transferred to a clean 96-well plate and quantified by reading the absorbency at 530-nm. Cell viability was assessed by measurement of lactate dehydrogenase levels to ensure the decrease in melanin was not a result of cellular toxicity.

tyrosinase activity, % of ethanol control (mushroom tyrosinase; 0.1 uM) | tyrosinase activity, % of ethanol control (mushroom tyrosinase; 1 uM) | tyrosinase activity, % of ethanol control (mushroom tyrosinase; 10 uM) | tyrosinase activity, % of ethanol control (mushroom tyrosinase; 100 uM) | skin lightening effectiveness (in words, from tyrosinase data) (mushroom tyrosinase; conclusion drawn from Table 8) | Structure (SMILES) | activity at 6.25 µM (B16 mouse melanoma cells)
75.1 % of Control | 51.0 % of Control | 53.0 % of Control | 53.4 % of Control |  | CNC(=O)/C=C\c1ccc(O)cc1O [Resorcinol Amide 1] | 13.1%
84.2 % of Control | 59.5 % of Control | 58.0 % of Control | 57.9 % of Control |  | COCCNC(=O)/C=C\c1ccc(O)cc1O [Resorcinol Amide 2] | 13.7%
104 % of Control | 100 % of Control | 108 % of Control | 117 % of Control | effective in skin lightening | O=c1ccc2ccc(O)cc2o1 [7-Hydroxy Coumarin, 7-hydroxy coumarin] | 
72.7 % of Control | 46.3 % of Control | 30.8 % of Control | 20.7 % of Control |  | CCc1ccc(O)cc1O [4-Ethyl Resorcinol] | 15.6%

From US6852310B2, “Skin lightening agents, compositions and methods” (Unilever Home & Personal Care USA division of Conopco, Inc., priority 2002, dated 2005)
